Measurements as given in patent US8263605B2, “Modulators of muscarinic receptors” (Vertex Pharmaceutical Incorporated, priority 2006, dated 2012).

What was measured:
M1 muscarinic receptor = molecular target: T1, M1 muscarinic receptor (Homo sapiens, UniProt P11229); assay: Functional mobilization of intracellular calcium (FLIPR), M1-CHO cells; type: cell-based; conditions: for Emax: 100% efficacy is the maximum response obtained with the Carbachol control; for M1 Activity: CHO cells expressing M1, calcium mobilization
T1 construct: expressed in transfected cells; host or cells: CHO (M1-CHO)
T1 sequence (P11229 1-460): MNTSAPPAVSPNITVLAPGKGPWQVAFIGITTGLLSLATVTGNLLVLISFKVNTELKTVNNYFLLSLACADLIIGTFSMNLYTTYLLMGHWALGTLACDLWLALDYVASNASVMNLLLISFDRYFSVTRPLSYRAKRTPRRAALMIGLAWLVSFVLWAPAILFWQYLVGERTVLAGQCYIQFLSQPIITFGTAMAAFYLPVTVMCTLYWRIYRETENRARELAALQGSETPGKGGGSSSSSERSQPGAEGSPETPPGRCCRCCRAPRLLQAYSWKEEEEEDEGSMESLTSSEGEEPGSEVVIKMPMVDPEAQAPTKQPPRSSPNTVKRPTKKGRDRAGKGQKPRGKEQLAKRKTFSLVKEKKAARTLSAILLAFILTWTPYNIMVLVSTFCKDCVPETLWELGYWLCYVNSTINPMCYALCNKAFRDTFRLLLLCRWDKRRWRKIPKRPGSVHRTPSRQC
Experimental: (§1) Functional Mobilization of Intracellular Calcium to Determine Muscarinic Receptor Activity:
(§2) CHO cells expressing muscarinic receptors (M1 to M5) are grown as monolayers in tissue culture flasks at 37° C. in a humidified atmosphere containing 5% CO2 and passaged every 3-5 days. The growth media is Dulbecco's modified eagles medium (DMEM, Gibco Cat#12430-054), containing 25 mM Hepes and supplemented with Fetal Bovine Serum (Hyclone, cat# SH30071.03), 0.1 mM of MEM non-essential amino acids (GIBCO, Cat#11140-050), 1 mM MEM Sodium Pyruvate (GIBCO Cat#11360-070) and 100 units/ml of Penicillin G and 100 μg/ml of Streptomycin (GIBCO Cat#15140-122). The recombinant muscarinic receptor cell lines are grown under antibiotic pressure with media containing 25 μg/ml zeocin and 500 μg/ml G418 (M1-CHO), 4 μg/ml puromycin, 50 μg/ml zeocin and 2.5 μg/ml blasticidin (M2 and M4-CHO) or 50 μg/ml zeocin and 4 μg/ml puromycin (M3 and M5-CHO).
(§3) Cells are harvested at 80-90% confluence using Versene (GIBCO Cat#15040-066), collected by centrifugation and seeded 18-24 hours prior to running the calcium assay at a density of 5,000-10,000 cells/well in […], clear-bottomed 384-well plates (BD Biocoat, poly-D-lysine, Cat#356663). The day of the experiment, the cells are washed with a plate washer (Bioteck Instrunents, ELX 405) using bath 1 buffer (140-mM NaCl, 4.5-mM KCl, 2-mM CaCl2, 1-mM MgCl2, 10-mM Hepes-Na, 10-mM Glucose, pH 7.4, with NaOH) containing 1 mM Probenecid. Next, the calcium dye Fluo-3 (25 μl/well of Fluo-3 AM at 4 μM, Molecular Probes F-1241, in Bath 1 buffer containing 1 mM Probenecid) is added to the 25 μl of Bath 1 remaining in each well after the plate wash and the dye is loaded at 37° C. in the tissue culture incubator for 60-90 min. The fluorescent dye is removed using the plate washer with Bath 1 containing 1 mM Probenecid, leaving 25 μl/well of this solution after the wash. Alternatively, cells can be loaded with the calcium indicator from Molecular Devices (Calcium 3 Assay Reagents, Cat # R7181) adding 5 μl of a 5× solution dye in Bath 1 containing 1 mM Probenecid (10 ml per dye flask cat# R7182 to generate a solution 20×) to 20 μl of the same buffer. After loading for 60 min, the experiment can be run without having to remove the dye.
(§4) Compounds are prepared at a 2× fold concentration in a 96-well plate (round bottom, Costar Corning cat#3656), by reconstituting the pre-spotted compounds in bath 1 containing 1 mM probenecid. The final concentration DMSO is 0.5%, and the amount of DMSO is normalized across the assay plate. To determine an agonist action of the compounds on muscarinic receptors, the reconstituted compounds are added (25 μl compound/well) to the cell assay plate (containing 25 μl/well) using the multi-channel robotic system of the FLIPR 3 Instrument (Molecular Devices, Sunnyvale, Calif.). To determine a functional inhibitory action of the compounds on muscarinic receptors, the reconstituted compounds are added (25 μl compound/well) to the assay plate and pre-incubated for 15 min prior to adding 25 μl of Carbachol at 3× the EC80 for each muscarinic subtype. Alternatively, the compounds can be co-applied simultaneously with the agonist. In both assay modes, the fluorescence is recorded for 60 sec (excitation wavelength is […] and emission wavelength 540 nm) using the FLIPR 3 instrument.
(§5) The potency, efficacy and selectivity of the muscarinic compounds were evaluated by screening the compound activity across the whole family (M1 to M5 cells). Compounds were also screened for activity on other proteins such as other GPCRs and ion channels to determine selectivity on M4 receptors.
(§6) Examples of activities and efficacies of the muscarinic compounds of formulae (I, Ia, Ib, Ic, Id, and Ie) on modulating M1 and M4 receptors are shown below in Table 4. […]

M4 muscarinic receptor = molecular target: T2, M4 muscarinic receptor (Homo sapiens, UniProt P08173); assay: Functional mobilization of intracellular calcium (FLIPR), M4-CHO cells; type: cell-based; conditions: for Emax: 100% efficacy is the maximum response obtained with the Carbachol control; for M4 Activity: CHO cells expressing M4, calcium mobilization
T2 construct: expressed in transfected cells; host or cells: CHO (M4-CHO)
T2 sequence (P08173 1-479): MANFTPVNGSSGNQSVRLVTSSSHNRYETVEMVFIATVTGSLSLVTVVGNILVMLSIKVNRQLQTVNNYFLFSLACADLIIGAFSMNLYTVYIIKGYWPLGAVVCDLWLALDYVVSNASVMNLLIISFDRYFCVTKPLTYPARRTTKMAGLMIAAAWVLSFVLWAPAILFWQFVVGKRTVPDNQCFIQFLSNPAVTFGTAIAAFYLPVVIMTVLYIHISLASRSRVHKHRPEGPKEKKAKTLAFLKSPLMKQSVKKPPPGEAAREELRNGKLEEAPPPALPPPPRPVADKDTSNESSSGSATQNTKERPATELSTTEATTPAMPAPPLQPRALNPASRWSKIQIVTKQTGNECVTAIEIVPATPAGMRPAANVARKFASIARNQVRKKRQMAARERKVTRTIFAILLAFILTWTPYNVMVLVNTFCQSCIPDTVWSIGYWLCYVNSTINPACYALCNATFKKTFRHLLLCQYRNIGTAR
Experimental: as §1, §2, §3, §4, §5, §6

Row | SMILES | Emax (M1 muscarinic receptor) [%] | M1 Activity (M1 muscarinic receptor) | Emax (M4 muscarinic receptor) [%] | M4 Activity (M4 muscarinic receptor)
1 | C#CCOC(=O)N1CCC(N2CCC3(CCN(C(=O)N(C)C)c4ccccc43)CC2)CC1 [compound 4] | 25 to 100 | +++ (activity was measured to be less than 2.0 μM) | 25 to 100 | +++ (activity was measured to be less than 2.0 μM)
2 | Cc1nsc(N2CCC(N3CCC4(CCN(C(=O)N(C)C)c5ccccc54)CC3)CC2)n1 [compound 6] | 25 to 100 | +++ (activity was measured to be less than 2.0 μM) | 25 to 100 | +++ (activity was measured to be less than 2.0 μM)
3 | CCc1nsc(N2CCC(N3CCC4(CCN(C(=O)N(C)C)c5ccccc54)CC3)CC2)n1 [compound 7] | 25 to 100 | +++ (activity was measured to be less than 2.0 μM) | 25 to 100 | +++ (activity was measured to be less than 2.0 μM)
4 | CN(C)C(=O)N1CCC2(CCN(C3CCN(c4cnccn4)CC3)CC2)c2ccccc21 [compound 8] | 25 to 100 | +++ (activity was measured to be less than 2.0 μM) | 25 to 100 | +++ (activity was measured to be less than 2.0 μM)
5 | COC(=O)N1CCC(N2CCC3(CCN(C(C)=O)c4ccccc43)CC2)CC1 [compound 10] | 25 to 100 | +++ (activity was measured to be less than 2.0 μM) | 25 to 100 | +++ (activity was measured to be less than 2.0 μM)
6 | C#CCOC(=O)N1CCC(N2CCC3(CCN(C(C)=O)c4ccccc43)CC2)CC1 [compound 12] | > 100 | +++ (activity was measured to be less than 2.0 μM) | 25 to 100 | +++ (activity was measured to be less than 2.0 μM)
7 | CC#CCOC(=O)N1CCC(N2CCC3(CCN(C(C)=O)c4ccccc43)CC2)CC1 [compound 13] | 25 to 100 | +++ (activity was measured to be less than 2.0 μM) | 25 to 100 | +++ (activity was measured to be less than 2.0 μM)
8 | CCC#CCOC(=O)N1CCC(N2CCC3(CCN(C(C)=O)c4ccccc43)CC2)CC1 [compound 14] | 25 to 100 | +++ (activity was measured to be less than 2.0 μM) | 25 to 100 | +++ (activity was measured to be less than 2.0 μM)
9 | CC(=O)N1CCC2(CCN(C3CCN(c4nc(C)ns4)CC3)CC2)c2ccccc21 [compound 15] | 25 to 100 | +++ (activity was measured to be less than 2.0 μM) | 25 to 100 | +++ (activity was measured to be less than 2.0 μM)
10 | CCc1nsc(N2CCC(N3CCC4(CCN(C(C)=O)c5ccccc54)CC3)CC2)n1 [compound 16] | 25 to 100 | +++ (activity was measured to be less than 2.0 μM) | 25 to 100 | +++ (activity was measured to be less than 2.0 μM)
11 | CC(=O)N1CCC2(CCN(C3CCN(c4cnccn4)CC3)CC2)c2ccccc21 [compound 17] | 25 to 100 | +++ (activity was measured to be less than 2.0 μM) | 25 to 100 | +++ (activity was measured to be less than 2.0 μM)
12 | CC(=O)N1CCC2(CCN(C3CCN(c4cnc5ccccc5n4)CC3)CC2)c2ccccc21 [compound 18] | 25 to 100 | ++ (activity was measured to be from 2.0 μM to 10.0 μM) | 25 to 100 | +++ (activity was measured to be less than 2.0 μM)
13 | CN(C)C(=O)N1CCC2(CCN(C3CCN(C(=O)OCCC#N)CC3)CC2)c2ccccc21 [compound 19] | < 25 | ++ (activity was measured to be from 2.0 μM to 10.0 μM) | 25 to 100 | +++ (activity was measured to be less than 2.0 μM)
14 | CN(C)C(=O)N1CCC2(CCN(C3CCN(c4nncs4)CC3)CC2)c2ccccc21 [compound 21] | 25 to 100 | ++ (activity was measured to be from 2.0 μM to 10.0 μM) | < 25 | ++ (activity was measured to be from 2.0 μM to 10.0 μM)
15 | Cc1csc(N2CCC(N3CCC4(CCN(C(=O)N(C)C)c5ccccc54)CC3)CC2)n1 [compound 22] | 25 to 100 | ++ (activity was measured to be from 2.0 μM to 10.0 μM) | 25 to 100 | ++ (activity was measured to be from 2.0 μM to 10.0 μM)
16 | CC(=O)N1CCC2(CCN(C3CCN(c4nncs4)CC3)CC2)c2ccccc21 [compound 23] | 25 to 100 | ++ (activity was measured to be from 2.0 μM to 10.0 μM) | 25 to 100 | ++ (activity was measured to be from 2.0 μM to 10.0 μM)
17 | CC(=O)N1CCC2(CCN(C3CCN(c4nccs4)CC3)CC2)c2ccccc21 [compound 24] | 25 to 100 | ++ (activity was measured to be from 2.0 μM to 10.0 μM) | < 25 | ++ (activity was measured to be from 2.0 μM to 10.0 μM)
18 | CC(=O)N1CCC2(CCN(C3CCN(c4nc(C)cs4)CC3)CC2)c2ccccc21 [compound 25] | 25 to 100 | ++ (activity was measured to be from 2.0 μM to 10.0 μM) | 25 to 100 | ++ (activity was measured to be from 2.0 μM to 10.0 μM)
19 | COC(=O)N1C2CCC1CC(N1CCC3(CCN(C(=O)N(C)C)c4ccccc43)CC1)C2 (centres unmarked) [compound 26] | 25 to 100 | ++ (activity was measured to be from 2.0 μM to 10.0 μM) | 25 to 100 | +++ (activity was measured to be less than 2.0 μM)
20 | CCOC(=O)N1C2CCC1CC(N1CCC3(CCN(C(=O)N(C)C)c4ccccc43)CC1)C2 (centres unmarked) [compound 27] | 25 to 100 | +++ (activity was measured to be less than 2.0 μM) | 25 to 100 | +++ (activity was measured to be less than 2.0 μM)
